Here are results for two molecules from patent publication US20260174682A1, “GAMMA-AMINOBUTYRIC ACID DERIVATIVE COMPRISING POLYCYCLIC STRUCTURE, METHOD FOR PREPARING SAME, AND USE THEREOF” (ZHONGSHAN INSTITUTE FOR DRUG DISCOVERY, SIMM, CAS., priority 2022, published 2026).

Each structure is given as a SMILES string. Several values for one entry are separate records, joined by “and”; a condition that tells them apart may be missing. Identical values can stand only once. Marks after values point to notes of the source that are not given here.

One series deals with motor functions of rats. Kind of series: Rotarod test of impact on motor functions of rats. The settings on record: male SD rats; for impact on rotarod behaviors of the rats: gavage 10 mg/kg (calculated by free base); for impact on rotarod behaviors of the rats / impact on rotarod behaviors of the rats (impacted proportion): FIG. 7; for impact on rotarod behaviors of the rats (impacted proportion): gavage 30 mg/kg (calculated by free base). How it is done: A negative vehicle control, a positive drug control group (pregabalin, (PGB), 10 mg/kg, 30 mg/kg) were set, and a test group (including (+)—I-3 p-toluenesulfonate at 10 mg/kg (calculated by free base), (+)—I-4 p-toluenesulfonate at 10 mg/kg (calculated by free base), (+)—I-3 p-toluenesulfonate at 30 mg/kg (calculated by free base) and (+)—I-4 p-toluenesulfonate at 30 mg/kg (calculated by free base)) were set. Male SD rats with the body weight of 200-250 g were selected, with 10 animals in each administration group. AYLS-31A fatigue rota-rod (Shanghai Xinruan Information Technology Co., Ltd.) was used as rotarod test equipment, and a rotation speed was set at a constant speed of 6 rpm. A screening test was carried out on the first day. Tail tips of the rats were pinched, placed on the rotarod, and released the same after the rats maintained balance on the rotarod and moved along with the rotarod. The falling number of the rats within the next 1 min was recorded and counted. The rats that fell for 3 times within 1 min were excluded, which were not used for subsequent drug evaluation. A drug evaluation test was carried out on the second day. The rats were fasted for 8 h before the test, then a rotarod test was carried out once to serve as a time point (BL) before administration, and then administration was performed by gavage. […] The falling number of the rats within 1 min was recorded and counted. The rats falling for 3 times within one min were regarded as having “motor function impairments” caused by drug toxicity. The “motor function impairment” degree (rotarod fall) of each administration group at a specific time point was calculated as a proportion of a number of the animals with “motor function impairments” in the group to a total number of the animals in the group.
The rotarod test is a classic test for measuring the damage of compounds to motor functions of animals.

The test system of series [1] is mouse model with subcutaneous injection of pentylenetetrazole (sc-PTZ). Kind of series: Antiepileptic effect in mouse model with subcutaneous injection of pentylenetetrazole (sc-PTZ). Type of series: in vivo. The settings on record: for Clonic seizure incidence / Convulsive seizure incidence / Generalized clonic seizure incidence / Mortality / Tonic seizure incidence: sc-PTZ 100 mg/kg, ICR mice, intraperitoneal 30 mg/kg (own compounds calculated by free base), 1 h observation; for latent periods of generalized clonic seizures, tonic seizures and death: 30 mg/kg (calculated by free base), FIG. 6. How it is done: A negative vehicle control group, a positive drug control group (pregabalin and gabapentin) and a test group of the compounds of the present application were set. Male ICR mice with a body weight of 22±2 g were selected. […] After fasted for 12 h, the mice were administered the compounds of the present application or the control drugs, and then subcutaneously injected with pentylenetetrazole (PTZ) to induce epilepsy seizure behaviors after a certain time interval (2 h for pregabalin, 1 h for gabapentin, and 3 h for the compounds of the present application). In an induction model, pentylenetetrazole (PTZ) was dissolved in normal saline and administered to the mice through the way of subcutaneous injection (10 mL/kg, administration dose 100 mg/kg). After the injection of PTZ, behavioral observations on the mice were conducted for 1 h, and the latent periods and numbers of the mice with convulsive seizures, clonic seizures, tonic seizures and death after the injection of PTZ were recorded.
Statistical method: Protection rates and mortality of different administration groups were separately compared with those of the vehicle control group to carry out a Fisher's exact test. The seizure time and the latent periods were analyzed by one-way ANOVA.

For another series, the system named is male SD rats. In words: Acute toxicity test on rats. The settings on record: for Observation of clinical symptoms 0.5 h / Observation of clinical symptoms 1 h / Observation of clinical symptoms 2 h / Observation of clinical symptoms 4 h / Observation of clinical symptoms 6 h / Observation of clinical symptoms 24 h: per animal.
The nature of series [2]: Pharmacokinetic test on rats. The series is classed as in vivo, rat. The settings on record: male SD rats; for t1/2: data based on free base. How it is done: Male SD rats were fasted for 12 h before the test and then allowed to drink water freely. The compound (+)—I-3 p-toluenesulfonate or (+)—I-4 p-toluenesulfonate of the present application was dissolved with a 10% distilled water solution of 1,2-propanediol and then administered orally or intravenously to the male SD rats, with 3 rats in each group. At 15 min, 30 min, 1 hour, 2 hours, 3 hours, 4 hours, 6 hours, 8 hours and 24 hours after the oral administration or at 5 min, 15 min, 30 min, 1 hour, 2 hours, 3 hours, 4 hours, 6 hours, 8 hours and 24 hours after the intravenous administration, 0.2 mL of blood was taken from retroocular venous plexuses, placed in an EDTA-K2 test tube, centrifuged at 11,000 rpm for 5 min to separate plasma, and frozen in a refrigerator at −20° C. The concentration of a drug prototype was determined by HPLC-ESI-MS according to a verified method, and pharmacokinetic parameters were calculated by WinNonLin.

[3] abbreviates: oral gavage 163.8 mg/kg (calculated by free base).
Where [4] appears, read: oral gavage 300 mg/kg (calculated by free base).
Where [5] appears, read: gavage vs intravenous injection.
Setting [6] is: intravenous injection, 1.10 / 1.09 mg/kg.

Method for male SD rats: After adapting to the environment for one week, the SD rats were used in a preliminary acute toxicity test. The compounds were newly formulated on the day of the test. […] After being labeled and weighed, the animals were randomly grouped with 2-4 animals in each group. […] Clinical symptoms of each animal were observed and recorded at 0.5 hours, 1 hour, 2 hours, 4 hours, 6 hours and 24 hours after the administration, respectively. Clinical symptom codes were as follows: 0 no abnormality, 1 mild tremor, 2 unsteady gait, 3 prone position, 4 startle reflex, 5 difficult breathing, 6 righting reflex disappeared, 7 eyelid closure, 8 shortness of breath, and x animal death.

`CC(C)C[C@H](CN)CC(=O)O` [Pregabalin]: in the series on motor functions of rats, the “impact on rotarod behaviors of the rats” value is on record as “no significant impact” and the “impact on rotarod behaviors of the rats (impacted proportion)” value is listed as “obvious toxic responses”. Moreover, the “time of maximum impact on the rotarod behaviors after the administration” value with motor functions of rats (gavage 30 mg/kg) is 4 h. For the same molecule, in series [1], the Clonic seizure incidence was 8/8, the Convulsive seizure incidence is reported as 8/8, the “Generalized clonic seizure incidence” value was 5/8 and the Mortality is reported as 1/8*. In addition, in series [1], the Tonic seizure incidence is reported as 1/8**. Further, in series [1] (sc-PTZ mice, 30 mg/kg), the “generalized clonic seizures (percent of animals; vehicle 100%)” value is 62.5%, the “mortality (percent of animals; vehicle 75%)” value is 12.5% and the “tonic seizure incidence (percent of animals; vehicle 75%)” value amounted to 12.5%. The “latent periods of generalized clonic seizures, tonic seizures and death” value in series [1] (sc-PTZ mice) is given as “significantly prolong”.

With `Cc1ccc(S(=O)(=O)O)cc1.NCC1(CC(=O)O)CC2C3C=CC(C3)C21` (single isomer, unassigned; (+)) [(+)-I-4 p-toluenesulfonate], in the series on male SD rats (setting [3]), the “abnormal behaviors at 0-24 h after the administration” value is “no obvious abnormal behaviors”, the “Observation of clinical symptoms 0.5 h” value is on record as 0, the “Observation of clinical symptoms 1 h” value is recorded as 0 and the “Observation of clinical symptoms 2 h” value is listed as 0. Also, in the series with male SD rats (setting [3]), the “Observation of clinical symptoms 4 h” value is listed as 0, the “Observation of clinical symptoms 6 h” value was 0 and the “Observation of clinical symptoms 24 h” value is listed as 0. Besides, in the series on male SD rats (setting [4]), the animal death result was “no animals are dead”, the “Observation of clinical symptoms 0.5 h” value is listed as 0, the “Observation of clinical symptoms 1 h” value is 3 and the “Observation of clinical symptoms 2 h” value is 0. In addition, in the series with male SD rats (setting [4]), the “Observation of clinical symptoms 6 h” value is 0 and the “Observation of clinical symptoms 24 h” value is 0. For the same molecule, in the series on male SD rats (oral gavage 300 mg/kg (calculated by free base), 300 mg/kg), the “Observation of clinical symptoms 4 h” value was 3 and 0. In addition, in the series on motor functions of rats, the “impact on rotarod behaviors of the rats” value is recorded as “no significant impact” and the “impact on rotarod behaviors of the rats (impacted proportion)” value is given as “smaller than that in the PGB group”. Moreover, in series [1], the Clonic seizure incidence was 10/10, the Convulsive seizure incidence is given as 10/10, the “Generalized clonic seizure incidence” value is 6/10 and the Mortality is reported as 3/10. Besides, the Tonic seizure incidence in series [1] is 2/10. Besides, in series [1] (sc-PTZ mice, 30 mg/kg), the “generalized clonic seizures (percent of animals; vehicle 100%)” value is 60% and the “tonic seizure incidence (percent of animals; vehicle 75%)” value is 20%. Besides, the “latent periods of generalized clonic seizures, tonic seizures and death” value in series [1] (sc-PTZ mice) is recorded as “significantly prolong”. Moreover, in series [2] (setting [5]), the “F (%) calculated based on AUC0-t” value is 110.25% (calculated and the “F (%) calculated based on AUC0-∞” value is given as 110.36% (calculated. For the same molecule, the “t1/2” value in series [2] (gavage, 2.74 mg/kg ((+)-I-3) / 2.73 mg/kg ((+)-I-4)) turned out to be 1.08 h. Besides, in series [2] (gavage, 2.74 / 2.73 mg/kg), the “AUC0-t” value turned out to be 7290 ng·h/mL, the “AUC0-∞” value amounted to 7380 ng·h/mL, the highest concentration (Cmax) is reported as 2350 ng/mL and the “MRT0-∞” value is on record as 2.38 h. In addition, the “Tmax” value in series [2] (gavage, 2.74 / 2.73 mg/kg) came out at 1 h. Besides, the “t1/2” value in series [2] (intravenous injection, 1.10 mg/kg ((+)-I-3) / 1.09 mg/kg ((+)-I-4)) was 0.94 h. Also, in series [2] (setting [6]), the “AUC0-t” value amounted to 2640 ng·h/mL, the “AUC0-∞” value worked out at 2670 ng·h/mL and the “MRT0-∞” value is 1.63 h.

A word on the Cmax: it is the highest concentration seen after dosing. Usually Tmax stands for the time from dosing to the highest level.
